Test results taken from ChEMBL document CHEMBL5463729, “Data for DCP probe BAY 1753011” (2023).

What was measured:
Details in all cases: Compound concentration 10.0 uM
[1] = biological target: GABA-A receptor; anion channel (Rattus norvegicus) (UniProt O09028+P15431+P18506+P18508+P19969+P20236+P23574+P23576+P28471+P28473+P30191+P62813+P63079+P63138+Q91ZM7+Q9ES14)
[2] = biological target: Leucine-rich repeat serine/threonine-protein kinase 2 (Homo sapiens) (UniProt Q5S007); assay: Inhibition of LRRK2(h) at 10.0 µM in the Eurofins Kinase panel
[3] = biological target: Serine/threonine-protein kinase pim-2 (Homo sapiens) (UniProt Q9P1W9); assay: Inhibition of Pim-2(h) at 10.0 µM in the Eurofins Kinase panel
[4] = biological target: Dual specificity protein kinase CLK1 (Homo sapiens) (UniProt P49759); assay: Inhibition of CLK1(h) at 10.0 µM in the Eurofins Kinase panel
[5] = biological target: Inhibitor of nuclear factor kappa-B kinase subunit epsilon (Homo sapiens) (UniProt Q14164); assay: Inhibition of IKKepsilon(h) at 10.0 µM in the Eurofins Kinase panel
Rattus norvegicus = species on record: Rattus norvegicus
[6] = biological target: Protein-tyrosine kinase 6 (Homo sapiens) (UniProt Q13882); assay: Inhibition of BRK(h) at 10.0 µM in the Eurofins Kinase panel
[7] = biological target: Serine/threonine-protein kinase A-Raf (Homo sapiens) (UniProt P10398); assay: Inhibition of A-Raf(h) at 10.0 µM in the Eurofins Kinase panel
[8] = biological target: Macrophage-stimulating protein receptor (Homo sapiens) (UniProt Q04912); assay: Inhibition of Ron(h) at 10.0 µM in the Eurofins Kinase panel
[9] = biological target: Muscarinic acetylcholine receptor M3 (Homo sapiens) (UniProt P20309)
[10] = biological target: Mitogen-activated protein kinase kinase kinase 2 (Homo sapiens) (UniProt Q9Y2U5); assay: Inhibition of MEKK2(h) at 10.0 µM in the Eurofins Kinase panel
[11] = biological target: Serine/threonine-protein kinase 32A (Homo sapiens) (UniProt Q8WU08); assay: Inhibition of STK32A(h) at 10.0 µM in the Eurofins Kinase panel
[12] = biological target: Histamine H1 receptor (Homo sapiens) (UniProt P35367)
[13] = biological target: Mitogen-activated protein kinase kinase kinase 7 (Homo sapiens) (UniProt O43318); assay: Inhibition of TAK1(h) at 10.0 µM in the Eurofins Kinase panel
[14] = biological target: Eukaryotic translation initiation factor 2-alpha kinase 3 (Homo sapiens) (UniProt Q9NZJ5); assay: Inhibition of PEK(h) at 10.0 µM in the Eurofins Kinase panel
[15] = biological target: Dual specificity mitogen-activated protein kinase kinase 1 (Homo sapiens) (UniProt Q02750); assay: Inhibition of MEK1(h) at 10.0 µM in the Eurofins Kinase panel
[16] = biological target: LIM domain kinase 2 (Homo sapiens) (UniProt P53671); assay: Inhibition of LIMK2(h) at 10.0 µM in the Eurofins Kinase panel
[17] = biological target: Dual specificity tyrosine-phosphorylation-regulated kinase 1B (Homo sapiens) (UniProt Q9Y463); assay: Inhibition of DYRK1B(h) at 10.0 µM in the Eurofins Kinase panel
[18] = biological target: Casein kinase I isoform delta (Homo sapiens) (UniProt P48730); assay: Inhibition of CK1delta(h) at 10.0 µM in the Eurofins Kinase panel
[19] = biological target: Glucocorticoid receptor (Homo sapiens) (UniProt P04150)
[20] = biological target: Mitogen-activated protein kinase kinase kinase 10 (Homo sapiens) (UniProt Q02779); assay: Inhibition of MLK2(h) at 10.0 µM in the Eurofins Kinase panel
[21] = biological target: Tyrosine-protein kinase Yes (Homo sapiens) (UniProt P07947); assay: Inhibition of Yes(h) at 10.0 µM in the Eurofins Kinase panel
[22] = biological target: T1, 5-hydroxytryptamine receptor 1A (Homo sapiens) (UniProt P08908)
T1 sequence (whole entry): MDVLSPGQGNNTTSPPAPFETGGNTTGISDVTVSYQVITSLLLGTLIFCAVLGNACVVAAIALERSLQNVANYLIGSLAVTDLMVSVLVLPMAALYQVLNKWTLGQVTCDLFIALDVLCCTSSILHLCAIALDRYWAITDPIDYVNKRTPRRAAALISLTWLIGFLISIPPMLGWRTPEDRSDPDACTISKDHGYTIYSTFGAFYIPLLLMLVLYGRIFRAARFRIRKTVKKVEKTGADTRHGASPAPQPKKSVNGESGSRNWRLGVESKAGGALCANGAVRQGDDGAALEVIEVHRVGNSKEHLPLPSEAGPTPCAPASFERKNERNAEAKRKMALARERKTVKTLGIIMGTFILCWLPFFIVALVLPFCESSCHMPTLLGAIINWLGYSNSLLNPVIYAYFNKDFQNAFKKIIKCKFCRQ

[23] = biological target: Ephrin type-A receptor 1 (Homo sapiens) (UniProt P21709); assay: Inhibition of EphA1(h) at 10.0 µM in the Eurofins Kinase panel
[24] = biological target: PI3K p110 beta/p85 alpha (Homo sapiens) (UniProt P27986+P42338); assay: Inhibition of PI3 Kinase (p110b/p85a)(h) at 10.0 µM in the Eurofins Kinase panel; type: protein-complex assay
[25] = biological target: NUAK family SNF1-like kinase 1 (Homo sapiens) (UniProt O60285); assay: Inhibition of ARK5(h) at 10.0 µM in the Eurofins Kinase panel
[26] = biological target: Ephrin type-A receptor 7 (Homo sapiens) (UniProt Q15375); assay: Inhibition of EphA7(h) at 10.0 µM in the Eurofins Kinase panel
[27] = biological target: Phosphatidylinositol 4-phosphate 3-kinase C2 domain-containing subunit alpha (Homo sapiens) (UniProt O00443); assay: Inhibition of PI3KC2a(h) at 10.0 µM in the Eurofins Kinase panel
[28] = biological target: Histamine H1 receptor (Homo sapiens) (UniProt P35367); remark: listed apart in the source
[29] = biological target: Histamine H4 receptor (Homo sapiens) (UniProt Q9H3N8)
Histamine H4 receptor (Homo sapiens), sequence (Q9H3N8 whole entry): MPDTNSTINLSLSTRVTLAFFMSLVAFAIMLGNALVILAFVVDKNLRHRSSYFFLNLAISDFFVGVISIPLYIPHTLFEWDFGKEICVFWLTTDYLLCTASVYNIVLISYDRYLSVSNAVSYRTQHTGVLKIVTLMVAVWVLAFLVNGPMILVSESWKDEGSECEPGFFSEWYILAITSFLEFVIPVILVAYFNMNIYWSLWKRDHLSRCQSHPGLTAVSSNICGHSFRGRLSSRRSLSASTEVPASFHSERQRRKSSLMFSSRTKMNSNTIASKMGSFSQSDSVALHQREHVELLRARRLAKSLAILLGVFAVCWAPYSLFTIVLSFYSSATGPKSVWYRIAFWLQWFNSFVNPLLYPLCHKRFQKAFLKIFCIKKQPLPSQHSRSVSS

Muscarinic acetylcholine receptor M3 (Homo sapiens), sequence (P20309 whole entry, looked up): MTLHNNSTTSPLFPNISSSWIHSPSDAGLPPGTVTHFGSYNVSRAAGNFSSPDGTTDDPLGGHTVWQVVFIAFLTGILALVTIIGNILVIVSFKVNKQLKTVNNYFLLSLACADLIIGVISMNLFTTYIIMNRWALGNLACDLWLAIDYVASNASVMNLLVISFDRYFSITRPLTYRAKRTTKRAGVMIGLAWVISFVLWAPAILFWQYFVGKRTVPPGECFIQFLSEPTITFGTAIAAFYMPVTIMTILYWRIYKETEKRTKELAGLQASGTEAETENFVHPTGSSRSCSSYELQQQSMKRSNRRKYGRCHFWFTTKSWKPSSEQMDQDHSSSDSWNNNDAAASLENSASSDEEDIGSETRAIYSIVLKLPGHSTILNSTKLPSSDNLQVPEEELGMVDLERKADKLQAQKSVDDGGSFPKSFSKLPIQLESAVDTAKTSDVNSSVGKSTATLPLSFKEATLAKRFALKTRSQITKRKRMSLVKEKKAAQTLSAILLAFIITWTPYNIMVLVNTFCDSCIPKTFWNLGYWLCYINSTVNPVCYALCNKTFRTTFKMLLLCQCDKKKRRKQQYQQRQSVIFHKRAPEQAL
Histamine H1 receptor (Homo sapiens), sequence (P35367 whole entry): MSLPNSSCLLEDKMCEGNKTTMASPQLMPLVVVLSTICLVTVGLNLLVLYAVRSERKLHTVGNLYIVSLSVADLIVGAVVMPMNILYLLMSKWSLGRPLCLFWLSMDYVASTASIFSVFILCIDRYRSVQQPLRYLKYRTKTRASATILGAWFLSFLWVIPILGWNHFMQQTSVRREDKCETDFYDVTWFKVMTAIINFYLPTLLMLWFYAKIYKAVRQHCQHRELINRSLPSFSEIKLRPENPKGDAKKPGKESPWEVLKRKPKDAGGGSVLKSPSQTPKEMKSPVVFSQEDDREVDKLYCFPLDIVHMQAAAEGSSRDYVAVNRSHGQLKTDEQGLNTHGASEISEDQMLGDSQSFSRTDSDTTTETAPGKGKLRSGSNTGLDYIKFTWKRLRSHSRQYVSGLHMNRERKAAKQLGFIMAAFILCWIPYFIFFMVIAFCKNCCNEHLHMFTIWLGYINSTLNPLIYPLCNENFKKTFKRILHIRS
Dual specificity mitogen-activated protein kinase kinase 1 (Homo sapiens), sequence (Q02750 whole entry, the tested form may be a part): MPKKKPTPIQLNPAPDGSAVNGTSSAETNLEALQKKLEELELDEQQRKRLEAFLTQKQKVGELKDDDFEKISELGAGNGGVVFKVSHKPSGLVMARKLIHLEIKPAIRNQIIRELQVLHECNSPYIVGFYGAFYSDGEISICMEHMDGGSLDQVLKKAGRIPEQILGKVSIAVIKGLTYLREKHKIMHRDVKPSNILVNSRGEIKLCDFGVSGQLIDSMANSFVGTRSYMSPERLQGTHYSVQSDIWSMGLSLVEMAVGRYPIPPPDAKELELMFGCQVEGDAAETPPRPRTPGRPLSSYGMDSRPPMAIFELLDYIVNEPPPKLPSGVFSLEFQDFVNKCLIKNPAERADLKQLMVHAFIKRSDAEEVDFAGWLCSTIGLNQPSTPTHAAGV
Ephrin type-A receptor 1 (Homo sapiens), sequence (P21709 whole entry): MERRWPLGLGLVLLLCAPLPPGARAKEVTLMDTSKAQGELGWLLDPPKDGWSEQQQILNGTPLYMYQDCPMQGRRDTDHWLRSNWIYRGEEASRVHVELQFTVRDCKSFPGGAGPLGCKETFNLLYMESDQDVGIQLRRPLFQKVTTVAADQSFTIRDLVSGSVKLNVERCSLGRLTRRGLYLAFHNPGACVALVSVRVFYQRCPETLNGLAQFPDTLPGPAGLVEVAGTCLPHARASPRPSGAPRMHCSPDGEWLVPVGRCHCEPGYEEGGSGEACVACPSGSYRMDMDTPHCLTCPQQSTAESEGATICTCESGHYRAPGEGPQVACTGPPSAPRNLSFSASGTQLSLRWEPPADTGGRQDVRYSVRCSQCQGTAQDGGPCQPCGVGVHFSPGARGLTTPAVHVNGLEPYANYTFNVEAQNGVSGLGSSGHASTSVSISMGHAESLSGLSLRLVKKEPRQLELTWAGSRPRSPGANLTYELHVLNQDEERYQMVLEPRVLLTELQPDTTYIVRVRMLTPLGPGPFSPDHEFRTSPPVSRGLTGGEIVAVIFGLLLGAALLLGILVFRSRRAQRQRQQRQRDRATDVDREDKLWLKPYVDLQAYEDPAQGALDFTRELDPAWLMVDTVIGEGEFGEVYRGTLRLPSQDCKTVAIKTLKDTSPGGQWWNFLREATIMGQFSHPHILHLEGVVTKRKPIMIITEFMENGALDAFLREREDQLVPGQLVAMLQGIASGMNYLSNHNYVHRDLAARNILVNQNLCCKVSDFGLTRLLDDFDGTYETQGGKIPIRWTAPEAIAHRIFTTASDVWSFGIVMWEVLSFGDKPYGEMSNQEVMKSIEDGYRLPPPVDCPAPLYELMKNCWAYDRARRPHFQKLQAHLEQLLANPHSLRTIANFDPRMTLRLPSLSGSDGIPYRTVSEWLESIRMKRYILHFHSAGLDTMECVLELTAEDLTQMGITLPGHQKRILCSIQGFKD
Mitogen-activated protein kinase kinase kinase 10 (Homo sapiens), sequence (Q02779 whole entry, looked up): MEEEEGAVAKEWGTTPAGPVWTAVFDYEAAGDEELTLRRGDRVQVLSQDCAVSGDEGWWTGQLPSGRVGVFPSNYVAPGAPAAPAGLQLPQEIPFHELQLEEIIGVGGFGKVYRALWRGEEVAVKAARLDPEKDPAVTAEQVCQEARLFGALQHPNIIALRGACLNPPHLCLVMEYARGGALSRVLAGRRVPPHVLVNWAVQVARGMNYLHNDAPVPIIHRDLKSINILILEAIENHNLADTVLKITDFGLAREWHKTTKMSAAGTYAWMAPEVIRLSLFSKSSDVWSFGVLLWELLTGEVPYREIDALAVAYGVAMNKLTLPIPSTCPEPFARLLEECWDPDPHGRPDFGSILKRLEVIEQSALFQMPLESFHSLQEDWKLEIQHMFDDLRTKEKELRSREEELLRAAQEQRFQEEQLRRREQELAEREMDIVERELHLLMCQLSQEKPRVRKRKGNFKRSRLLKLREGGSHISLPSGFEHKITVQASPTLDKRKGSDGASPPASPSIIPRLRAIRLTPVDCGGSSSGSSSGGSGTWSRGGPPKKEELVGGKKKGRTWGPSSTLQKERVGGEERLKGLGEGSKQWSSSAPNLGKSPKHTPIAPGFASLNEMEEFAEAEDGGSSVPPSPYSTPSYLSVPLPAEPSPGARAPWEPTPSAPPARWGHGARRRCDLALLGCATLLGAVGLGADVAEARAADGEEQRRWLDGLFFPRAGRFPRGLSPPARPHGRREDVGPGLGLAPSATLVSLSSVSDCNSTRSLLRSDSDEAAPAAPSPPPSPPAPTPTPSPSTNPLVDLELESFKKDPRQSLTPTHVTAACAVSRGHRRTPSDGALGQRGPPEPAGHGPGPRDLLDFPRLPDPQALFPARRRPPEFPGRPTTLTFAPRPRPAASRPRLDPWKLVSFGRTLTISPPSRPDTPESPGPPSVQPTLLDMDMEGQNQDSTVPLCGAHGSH
Mitogen-activated protein kinase kinase kinase 2 (Homo sapiens), sequence (Q9Y2U5 whole entry): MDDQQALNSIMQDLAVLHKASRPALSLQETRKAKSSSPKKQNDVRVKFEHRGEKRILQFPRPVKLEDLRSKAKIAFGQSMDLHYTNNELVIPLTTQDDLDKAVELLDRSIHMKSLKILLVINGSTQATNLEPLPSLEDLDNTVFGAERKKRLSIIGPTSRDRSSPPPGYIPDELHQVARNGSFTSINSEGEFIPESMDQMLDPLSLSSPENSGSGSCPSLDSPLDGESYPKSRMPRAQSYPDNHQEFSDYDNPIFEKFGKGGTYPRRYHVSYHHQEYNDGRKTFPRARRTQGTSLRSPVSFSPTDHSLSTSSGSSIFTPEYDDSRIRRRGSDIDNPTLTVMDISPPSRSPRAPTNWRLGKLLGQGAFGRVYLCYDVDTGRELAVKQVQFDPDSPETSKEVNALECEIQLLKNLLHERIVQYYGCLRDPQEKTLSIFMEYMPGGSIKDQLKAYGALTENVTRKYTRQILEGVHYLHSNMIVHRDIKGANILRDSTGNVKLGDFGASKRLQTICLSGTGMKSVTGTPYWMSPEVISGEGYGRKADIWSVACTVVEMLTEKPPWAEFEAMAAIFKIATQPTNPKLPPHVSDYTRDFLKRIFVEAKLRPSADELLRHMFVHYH
Dual specificity tyrosine-phosphorylation-regulated kinase 1B (Homo sapiens), sequence (Q9Y463 whole entry, looked up, canonical isoform): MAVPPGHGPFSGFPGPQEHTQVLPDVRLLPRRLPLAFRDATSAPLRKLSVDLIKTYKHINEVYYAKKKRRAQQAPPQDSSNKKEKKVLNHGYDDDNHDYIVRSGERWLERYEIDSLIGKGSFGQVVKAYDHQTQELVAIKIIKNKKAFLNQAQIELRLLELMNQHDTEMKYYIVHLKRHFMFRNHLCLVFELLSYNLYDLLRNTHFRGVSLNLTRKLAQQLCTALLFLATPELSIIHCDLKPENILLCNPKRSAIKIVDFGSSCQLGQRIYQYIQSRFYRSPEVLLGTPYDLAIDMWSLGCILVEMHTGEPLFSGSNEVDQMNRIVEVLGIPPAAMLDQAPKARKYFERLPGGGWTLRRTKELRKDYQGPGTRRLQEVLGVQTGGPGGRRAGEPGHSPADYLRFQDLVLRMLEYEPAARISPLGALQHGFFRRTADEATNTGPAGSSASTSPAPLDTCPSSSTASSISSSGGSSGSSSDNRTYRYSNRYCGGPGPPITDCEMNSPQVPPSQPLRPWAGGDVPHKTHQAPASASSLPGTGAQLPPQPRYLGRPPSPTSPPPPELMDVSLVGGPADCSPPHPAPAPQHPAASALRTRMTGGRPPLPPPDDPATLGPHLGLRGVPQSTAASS

SMILES | inhibition [1] [%] | inhibition [2] [%] | inhibition [3] [%] | inhibition [4] [%] | inhibition [5] [%] | inhibition (Rattus norvegicus) [%] | inhibition [6] [%] | inhibition [7] [%] | inhibition [8] [%] | inhibition [9] [%] | inhibition [10] [%] | inhibition [11] [%] | inhibition [12] [%] | inhibition [13] [%] | inhibition [14] [%] | inhibition [15] [%] | inhibition [16] [%] | inhibition [17] [%] | inhibition [18] [%] | inhibition [19] [%] | further results
O=c1n(Cc2cncn2-c2cccc(Cl)c2)nc(-c2ccc(Cl)cc2)n1C[C@H](O)C(F)(F)F | 12 | 10.3 | 4.89 | 7.05 | 0.02 | 9 | -7.96 | 2.57 | -7.87 | -4.25 | 9.53 | -1.08 | 9 | -1.55 | -1.49 | 4.57 | 1.5 | 15.4 | -5.22 | 32 | inhibition [20]: 0.43%; inhibition [21]: -2.72%; inhibition [22]: 33.3%; inhibition [23]: 2.94%; inhibition [24]: -2.42%; inhibition [25]: -2.39%; inhibition [26]: 3.37%; inhibition [27]: 27.5%; inhibition [28]: 28.5%; inhibition [29]: 0.51%
C[C@H](O)c1nc(Cn2nc(-c3ccc(Cl)cc3)n(C[C@H](O)C(F)(F)F)c2=O)nn1-c1cccc(Cl)c1 [PECAVAPTAN] | 30 | 5.14 | -2.97 | 7.77 | 3.03 | 8 | -3.8 | 1.05 | -9.41 | 28.2 | 7.54 | 3.15 | -1 | -6.39 | 1.82 | -3.73 | 0.25 | 15.8 | -3.11 | 1 | inhibition [20]: 4.18%; inhibition [21]: -6.93%; inhibition [22]: 46.8%; inhibition [23]: 7.71%; inhibition [24]: -1.96%; inhibition [25]: -3.57%; inhibition [26]: 4.11%; inhibition [27]: 11.6%; inhibition [28]: 12%; inhibition [29]: -1.47%
